# Biological target: T1, rat CB-1 receptor (Rattus norvegicus, UniProt P20272)
# T1 construct: The tissue obtained from the brain of SD rats was homogenized; from tissue; host or cells: brain of SD rats (membrane pellet of homogenate)
# Test: rat CB-1 receptor binding protocol with [3H]CP-55940
# Details: [3H]CP-55940, brain tissue of SD rats, 30 °C for 60 min; read-out: IC50
# T1 sequence (P20272 whole entry): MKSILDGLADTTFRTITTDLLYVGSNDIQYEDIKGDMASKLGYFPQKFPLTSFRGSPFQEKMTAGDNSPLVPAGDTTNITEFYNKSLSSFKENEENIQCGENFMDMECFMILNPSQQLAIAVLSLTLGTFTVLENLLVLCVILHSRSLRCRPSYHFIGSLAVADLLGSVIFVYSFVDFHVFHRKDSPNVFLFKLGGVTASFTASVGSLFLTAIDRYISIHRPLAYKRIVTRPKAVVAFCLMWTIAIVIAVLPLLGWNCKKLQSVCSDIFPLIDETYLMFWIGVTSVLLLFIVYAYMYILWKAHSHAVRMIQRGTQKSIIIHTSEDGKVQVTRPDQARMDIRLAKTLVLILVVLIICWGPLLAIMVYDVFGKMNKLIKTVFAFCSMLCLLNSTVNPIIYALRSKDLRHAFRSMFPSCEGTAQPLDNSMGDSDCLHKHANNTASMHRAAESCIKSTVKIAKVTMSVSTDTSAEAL
row,SMILES,IC50 [nM]
1,"CCCc1c(-c2nnc(C3(c4ccc(Cl)cc4)CC3)s2)nc(-c2ccc(Cl)cc2Cl)n1-c1ccc(Br)cc1 [Example 123, 2-(1-(4-Bromophenyl)-2-(2,4-dichlorophenyl)-5-propyl-1H-imidazol-4-yl)-5-(1-(4-chlorophenyl)cyclopropyl)-1,3,4-thiadiazole]",4.48
2,"CCCc1c(-c2nnc(C3(c4ccc(Cl)cc4)CCC3)s2)nc(-c2ccc(Cl)cc2Cl)n1-c1ccc(Br)cc1 [Example 124, 2-(1-(4-Bromophenyl)-2-(2,4-dichlorophenyl)-5-propyl-1H-imidazol-4-yl)-5-(1-(4-chlorophenyl)cyclobutyl)-1,3,4-thiadiazole]",1.79
3,"CCCc1c(-c2nnc(C(C)(C)C)s2)nc(-c2ccc(Cl)cc2Cl)n1-c1ccc(Cl)cc1 [Example 125, 2-tert-Butyl-5-(1-(4-chlorophenyl)-2-(2,4-dichlorophenyl)-5-propyl-1H-imidazol-4-yl)-1,3,4-thiadiazole]",7.94
4,"CCCc1c(-c2nnc(C3CCC3)s2)nc(-c2ccc(Cl)cc2Cl)n1-c1ccc(Cl)cc1 [Example 126, 2-(1-(4-Chlorophenyl)-2-(2,4-dichlorophenyl)-5-propyl-1H-imidazol-4-yl)-5-cyclobutyl-1,3,4-thiadiazole]",13.5
5,"CCCc1c(-c2nnc(C3(c4ccc(Cl)cc4)CC3)s2)nc(-c2ccc(Cl)cc2Cl)n1-c1ccc(Cl)cc1 [Example 127, 2-(1-(4-Chlorophenyl)-2-(2,4-dichlorophenyl)-5-propyl-1H-imidazol-4-yl)-5-(1-(4-chlorophenyl)cyclopropyl)-1,3,4-thiadiazole]",3.43
6,"CCCc1c(-c2nnc(C3(c4ccc(Cl)cc4)CCC3)s2)nc(-c2ccc(Cl)cc2Cl)n1-c1ccc(Cl)cc1 [Example 128, 2-(1-(4-Chlorophenyl)-2-(2,4-dichlorophenyl)-5-propyl-1H-imidazol-4-yl)-5-(1-(4-chlorophenyl)cyclobutyl)-1,3,4-thiadiazole]",3.5
7,"CCCc1c(-c2nnc(C3CCCCC3)s2)nc(-c2ccc(Cl)cc2Cl)n1-c1ccc(Cl)cc1 [Example 129, 2-(1-(4-Chlorophenyl)-2-(2,4-dichlorophenyl)-5-propyl-1H-imidazol-4-yl)-5-cyclohexyl-1,3,4-thiadiazole]",51.5
8,"CCc1c(-c2nnc(C3(c4ccc(Cl)cc4)CC3)s2)nc(-c2ccc(Cl)cc2Cl)n1-c1ccc(Br)cc1 [Example 130, 2-(1-(4-Bromophenyl)-2-(2,4-dichlorophenyl)-5-ethyl-1H-imidazol-4-yl)-5-(1-(4-chlorophenyl)cyclopropyl)-1,3,4-thiadiazole]",4.53
9,"CCc1c(-c2nnc(C3(c4ccc(Cl)cc4)CCC3)s2)nc(-c2ccc(Cl)cc2Cl)n1-c1ccc(Br)cc1 [Example 131, 2-(1-(4-Bromophenyl)-2-(2,4-dichlorophenyl)-5-ethyl-1H-imidazol-4-yl)-5-(1-(4-chlorophenyl)cyclobutyl)-1,3,4-thiadiazole]",4.79
10,"CCc1c(-c2nnc(C3(c4ccc(OC)cc4)CC3)s2)nc(-c2ccc(Cl)cc2Cl)n1-c1ccc(Br)cc1 [Example 132, 2-(1-(4-Bromophenyl)-2-(2,4-dichlorophenyl)-5-ethyl-1H-imidazol-4-yl)-5-(1-(4-methoxyphenyl)cyclopropyl)-1,3,4-thiadiazole]",9.21
11,"CCc1c(-c2nnc(C3(c4ccc(C)cc4)CC3)s2)nc(-c2ccc(Cl)cc2Cl)n1-c1ccc(Br)cc1 [Example 133, 2-(1-(4-Bromophenyl)-2-(2,4-dichlorophenyl)-5-ethyl-1H-imidazol-4-yl)-5-(1-p-tolylcyclopropyl)-1,3,4-thiadiazole]",5.72
12,"CCc1c(-c2nnc(C3(c4ccc(Cl)cc4Cl)CC3)s2)nc(-c2ccc(Cl)cc2Cl)n1-c1ccc(Br)cc1 [Example 134, 2-(1-(4-Bromophenyl)-2-(2,4-dichlorophenyl)-5-ethyl-1H-imidazol-4-yl)-5-(1-(2,4-dichlorophenyl)cyclopropyl)-1,3,4-thiadiazole]",6.57
13,"CCc1c(-c2nnc(C3(c4ccc(Cl)cc4)CCCC3)s2)nc(-c2ccc(Cl)cc2Cl)n1-c1ccc(Br)cc1 [Example 135, 2-(1-(4-Bromophenyl)-2-(2,4-dichlorophenyl)-5-ethyl-1H-imidazol-4-yl)-5-(1-(4-chlorophenyl)cyclopentyl)-1,3,4-thiadiazole]",1.87
14,"Cc1c(-c2nnc(C3(C(F)(F)F)CC3)s2)nc(-c2ccc(Cl)cc2Cl)n1-c1ccc(Br)cc1 [Example 136, 2-(1-(4-Bromophenyl)-2-(2,4-dichlorophenyl)-5-methyl-1H-imidazol-4-yl)-5-(1-(trifluoromethyl)cyclopropyl)-1,3,4-thiadiazole]",47.1
15,"Cc1c(-c2nnc(C3(C(F)(F)F)CCC3)s2)nc(-c2ccc(Cl)cc2Cl)n1-c1ccc(Br)cc1 [Example 137, 2-(1-(4-Bromophenyl)-2-(2,4-dichlorophenyl)-5-methyl-1H-imidazol-4-yl)-5-(1-(trifluoromethyl)cyclobutyl)-1,3,4-thiadiazole]",8.52
16,"Cc1c(-c2nnc(C3(c4ccc(Cl)cc4)CC3)s2)nc(-c2ccc(Cl)cc2Cl)n1-c1ccc(Br)cc1 [Example 138, 2-(1-(4-Bromophenyl)-2-(2,4-dichlorophenyl)-5-methyl-1H-imidazol-4-yl)-5-(1-(4-chlorophenyl)cyclopropyl)-1,3,4-thiadiazole]",18.5
17,"CCc1c(-c2nnc(C3(C(F)(F)F)CC3)s2)nc(-c2ccc(Cl)cc2Cl)n1-c1ccc(Br)cc1 [Example 139, 2-(1-(4-Bromophenyl)-2-(2,4-dichlorophenyl)-5-ethyl-1H-imidazol-4-yl)-5-(1-(trifluoromethyl)cyclopropyl)-1,3,4-thiadiazole]",15.9
18,"CCc1c(-c2nnc(C3(C(F)(F)F)CCC3)s2)nc(-c2ccc(Cl)cc2Cl)n1-c1ccc(Br)cc1 [Example 140, 2-(1-(4-Bromophenyl)-2-(2,4-dichlorophenyl)-5-ethyl-1H-imidazol-4-yl)-5-(1-(trifluoromethyl)cyclobutyl)-1,3,4-thiadiazole]",6.74
19,"Cc1c(-c2nnc(C(C)(C)C)s2)nc(-c2ccccc2Cl)n1-c1ccc(Br)cc1 [Example 141, 2-(1-(4-Bromophenyl)-2-(2-chlorophenyl)-5-methyl-1H-imidazol-4-yl)-5-tert-butyl-1,3,4-thiadiazole]",10.7
20,"Cc1c(-c2nnc(C3(C(F)(F)F)CC3)s2)nc(-c2ccccc2Cl)n1-c1ccc(Br)cc1 [Example 142, 2-(1-(4-Bromophenyl)-2-(2-chlorophenyl)-5-methyl-1H-imidazol-4-yl)-5-(1-(trifluoromethyl)cyclopropyl)-1,3,4-thiadiazole]",12.3
21,"Cc1c(-c2nnc(C3(c4ccc(Cl)cc4)CC3)s2)nc(-c2ccccc2Cl)n1-c1ccc(Br)cc1 [Example 144, 2-(1-(4-Bromophenyl)-2-(2-chlorophenyl)-5-methyl-1H-imidazol-4-yl)-5-(1-(4-chlorophenyl)cyclopropyl)-1,3,4-thiadiazole]",2.18
22,"CCc1c(-c2nnc(C3(C(F)(F)F)CC3)s2)nc(-c2ccccc2Cl)n1-c1ccc(Br)cc1 [Example 146, 2-(1-(4-Bromophenyl)-2-(2-chlorophenyl)-5-ethyl-1H-imidazol-4-yl)-5-(1-(trifluoromethyl)cyclopropyl)-1,3,4-thiadiazole]",11.5
